Assay results taken from patent publication US10253007B2, “Taxanes compounds, preparation method therefor, and uses thereof” (Jiangsu Tasly Diyi Pharmaceutical Co., Ltd., priority 2013, dated 2019).
Where two headings read alike, the source gives them in different places.

How the values were obtained:
[1] = MTT assay, proliferation inhibition; type: cell-based; conditions: Homo sapiens, LN-18 gastric cancer, read-out: Proliferation inhibition rate
Description: (§1) 1. Cytotoxicity Assay Using Human Tumor Cell Lines
(§2) Paclitaxel was used as the positive drug.

A2780 ovarian cancer = test: MTT assay, proliferation inhibition; type: cell-based; conditions: Homo sapiens, read-out: Proliferation inhibition rate
Description: as §1, §2

A375 melanoma = test: MTT assay, proliferation inhibition; type: cell-based; conditions: Homo sapiens, A-375, read-out: Proliferation inhibition rate
Description: as §1, §2

[2] = tested on: A549 non-small cell lung cancer; test: MTT assay, proliferation inhibition; type: cell-based; conditions: Homo sapiens, read-out: Proliferation inhibition rate
Description: as §1, §2

B16 melanoma = test: MTT assay, proliferation inhibition; type: cell-based; conditions: read-out: Proliferation inhibition rate
Description: as §1, §2

BGC-823 gastric cancer = test: MTT assay, proliferation inhibition; type: cell-based; conditions: Homo sapiens, read-out: Proliferation inhibition rate
Description: as §1, §2

DU145 prostate cancer = test: MTT assay, proliferation inhibition; type: cell-based; conditions: Homo sapiens, DU-145, read-out: Proliferation inhibition rate
Description: as §1, §2

HCT 116 colon cancer = test: MTT assay, proliferation inhibition; type: cell-based; conditions: Homo sapiens, read-out: Proliferation inhibition rate
Description: as §1, §2

HL60 leukemia = test: MTT assay, proliferation inhibition; type: cell-based; conditions: Homo sapiens, HL-60, read-out: Proliferation inhibition rate
Description: as §1, §2

HT29 colon cancer = test: MTT assay, proliferation inhibition; type: cell-based; conditions: Homo sapiens, HT-29, read-out: Proliferation inhibition rate
Description: as §1, §2

HeLa cervical cancer = test: MTT assay, proliferation inhibition; type: cell-based; conditions: Homo sapiens, read-out: Proliferation inhibition rate
Description: as §1, §2

K562 leukemia = test: MTT assay, proliferation inhibition; type: cell-based; conditions: Homo sapiens, read-out: Proliferation inhibition rate
Description: as §1, §2

LNCaP prostate cancer = test: MTT assay, proliferation inhibition; type: cell-based; conditions: Homo sapiens, read-out: Proliferation inhibition rate
Description: as §1, §2

MCF-7 breast cancer = test: MTT assay, proliferation inhibition; type: cell-based; conditions: Homo sapiens, MCF7, read-out: Proliferation inhibition rate
Description: as §1, §2

MDA-MB-436 breast cancer = test: MTT assay, proliferation inhibition; type: cell-based; conditions: Homo sapiens, read-out: Proliferation inhibition rate
Description: as §1, §2

[3] = tested on: NCI-H460 non-small cell lung cancer; test: MTT assay, proliferation inhibition; type: cell-based; conditions: Homo sapiens, read-out: Proliferation inhibition rate
Description: as §1, §2

[4] = tested on: breast cancer cell line MCF-7; test: IC50 values on breast cancer cell line MCF-7; type: cell-based; conditions: Homo sapiens, MCF7, 72 h
Description: From the activity evaluation data of the above-mentioned preliminary screen, it can be seen that the series of taxanes derivatives synthesized in the present invention have activity (although the activity of PCMI-43 is weakened). Afterward, most of the compounds are picked up from these derivatives to examine their IC50 values on breast cancer cell line MCF-7. Paclitaxel is used as the positive control drug. Experiments for each compound were independently repeated for three times and multiple holes were used in each experiment. The exposure time of drugs was 72 hours.

[5] = Caco-2 cell monolayer membrane transport assay; conditions: human; for recovery: Caco-2, Recovery rate in mass
Description: (§3) Caco-2 Cell Monolayer Membrane Transport Assay
(§4) Human-derived colorectal adenocarcinoma cell line Caco-2 cell monolayer model was used to study the bidirectional transport of the target compounds from the apical (AP) side to the basolateral (BL) side and from BL side to AP side. HPLC was used for quantitative analysis to calculate transport parameters, apparent permeability coefficient (Papp) and the efflux ratio.

Caco-2 cell monolayer [6] = test: Caco-2 cell monolayer membrane transport assay
Description: as §3, §4

16 cancer cell lines = test: Preliminary cytotoxicity evaluation on 16 cancer cell lines (MTT); type: cell-based, human; conditions: preliminary screen at 1 μM, compared with paclitaxel
Description: as §1, §2
In both cancer cell lines of A549 and B16, the cytotoxicity of the taxanes derivatives is slightly lower than that of the positive control drug.

Caco-2 cell monolayer [7] = conditions: human
Description: as §3, §4

[8] = reported value for paclitaxel; cited from earlier work
in vitro = conditions: human, Caco-2, Papp A-B, Mean
Description: as §3, §4

[9] = Caco-2, Papp A-B, Caco-2 cell line (21 days), bidirectional transport, Table 5
[10] = Caco-2, Papp A-B, Mean, Caco-2, A-B, mean of two samples
[11] = Caco-2, Papp A-B, Sample-01, Caco-2, A-B, Sample-01
[12] = Caco-2, Papp A-B, Sample-02, Caco-2, A-B, Sample-02
[13] = Mean, Caco-2, A-B, mean of two samples
[14] = Sample-01, Caco-2, A-B, Sample-01
[15] = Sample-02, Caco-2, A-B, Sample-02
[16] = Caco-2 cell line (21 days), bidirectional transport, Table 5

SMILES	inhibition at 1 µM [1] [%]	inhibition at 1 µM (A2780 ovarian cancer) [%]	inhibition at 1 µM (A375 melanoma) [%]	inhibition at 1 µM [2] [%]	inhibition at 1 µM (B16 melanoma) [%]	inhibition at 1 µM (BGC-823 gastric cancer) [%]	inhibition at 1 µM (DU145 prostate cancer) [%]	inhibition at 1 µM (HCT 116 colon cancer) [%]	inhibition at 1 µM (HL60 leukemia) [%]	inhibition at 1 µM (HT29 colon cancer) [%]	inhibition at 1 µM (HeLa cervical cancer) [%]	inhibition at 1 µM (K562 leukemia) [%]	inhibition at 1 µM (LNCaP prostate cancer) [%]	inhibition at 1 µM (MCF-7 breast cancer) [%]	inhibition at 1 µM (MDA-MB-436 breast cancer) [%]	inhibition at 1 µM [3] [%]	Papp A→B [5, 11] [×10⁻⁶ cm/s]	Papp A→B [5, 12] [×10⁻⁶ cm/s]	recovery [5, 13] [%]	recovery [5, 14] [%]	also measured
CO[C@H]1C(=O)[C@]2(C)[C@@H](OC(=O)N(C)C)C[C@H]3OC[C@@]3(OC(C)=O)[C@H]2[C@H](OC(=O)c2ccccc2)[C@]2(O)C[C@H](OC(=O)[C@H](O)[C@H](CC(C)C)NC(=O)OC(C)(C)C)C(C)=C1C2(C)C [PCMI-34]	90.6	95	104	73.5	81.4	94.7	86.9	60.1	98.1	89.2	102	92.9	88.7	101	81.2	86.2	11.8	9.54	67.4	71.2	IC50 ([4]; read-out: MCF-7(IC50, nM)): 13.26 ± 0.12 nM; Papp B→A ([5]; Caco-2): 30.9 ×10⁻⁶ cm/s; efflux ratio ([5]; Caco-2): 1.59; Papp A→B [5, 9]: 19.4 ×10⁻⁶ cm/s; Papp A→B [5, 10]: 10.7 ×10⁻⁶ cm/s; Papp A→B ([5]; Caco-2, Papp A-to-B, Caco-2): > 10 ×10⁻⁶ cm/s; recovery [5, 15]: 63.6%; membrane permeability (in words) (Caco-2 cell monolayer [6]; Caco-2 monolayer): highly permeable substrates
COC(=O)O[C@H]1C[C@H]2OC[C@@]2(OC(C)=O)[C@H]2[C@H](OC(=O)c3ccccc3)[C@]3(O)C[C@H](OC(=O)[C@H](O)[C@H](CC(C)C)NC(=O)OC(C)(C)C)C(C)=C([C@@H](OC)C(=O)[C@]12C)C3(C)C [PCMI-39]	94.1	94.9	90.2	67.4	72.3	91.7	84.9	57.1	99.1	88.4	100	92.2	82.8	100	78.4	81.6	6.13	8.81	64.2	71.7	IC50 ([4]; read-out: MCF-7(IC50, nM)): 2.81 ± 0.02 nM; Papp A→B [5, 10]: 7.47 ×10⁻⁶ cm/s; recovery [5, 15]: 56.7%; Papp A-B (Caco-2 cell monolayer [6]; [16]): 7.16 10^−6 cm/s; Papp B-A (Caco-2 cell monolayer [6]; [16]): 36.37 10^−6 cm/s
CO[C@H]1C(=O)[C@]2(C)CC[C@H]3OC[C@@]3(OC(C)=O)[C@H]2[C@H](OC(=O)c2ccccc2)[C@]2(O)C[C@H](OC(=O)[C@H](O)[C@H](CC(C)C)NC(=O)OC(C)(C)C)C(C)=C1C2(C)C [PCMI-42]	94.8	95.6	104	77.6	78.3	92.8	87	66.1	97.6	88.2	99.3	94.3	82.9	97.8	79.5	84.3	7.85	6.49	74.2	81	IC50 ([4]; read-out: MCF-7(IC50, nM)): 3.06 ± 0.08 nM; Papp A→B [5, 9]: 7.54 ×10⁻⁶ cm/s; recovery [5, 15]: 67.3%; efflux ratio (Caco-2 cell monolayer [6]; Caco-2 cell line (21 days), Papp B-A/Papp A-B): 5.12; Papp B-A (Caco-2 cell monolayer [6]; [16]): 38.57 10^−6 cm/s
CO[C@H]1C(=O)[C@]2(C)C=C[C@@H](O)[C@](CO)(OC(C)=O)[C@H]2[C@H](OC(=O)c2ccccc2)[C@]2(O)C[C@H](OC(=O)[C@H](O)[C@@H](NC(=O)c3ccccc3)c3ccccc3)C(C)=C1C2(C)C [PCMI-43]	73.2	70	77.8	53.9	13.3	38.2	63.4	46.1	76.3	36.4	52	80.9	61.2	68.3	35.7	62.1	3.21	2.89	72	76.6	cytotoxicity (in words) (16 cancer cell lines): weakened; Papp A→B [5, 10]: 3.05 ×10⁻⁶ cm/s; recovery [5, 15]: 67.5%
CO[C@H]1C(=O)[C@]2(C)C=C[C@@H](O)[C@](CO)(OC(C)=O)[C@H]2[C@H](OC(=O)c2ccccc2)[C@]2(O)C[C@H](OC(=O)[C@H](O)[C@@H](NC(=O)OC(C)(C)C)c3ccccc3)C(C)=C1C2(C)C [PCMI-44]	89.8	95.6	93.9	75.9	75.3	90.8	89.2	67.1	96.3	88.3	99.3	94.4	86.9	95.2	82.7	85.2	5.28	6.39	95.8	85.7	IC50 ([4]; read-out: MCF-7(IC50, nM)): 10.9 ± 0.16 nM; cytotoxicity (in words) (16 cancer cell lines): remains good cytotoxicity; Papp B→A ([5]; Caco-2): 27.2 ×10⁻⁶ cm/s; efflux ratio ([5]; Caco-2): 4.76; Papp A→B [5, 9]: 5.72 ×10⁻⁶ cm/s; Papp A→B [5, 10]: 5.83 ×10⁻⁶ cm/s; recovery [5, 15]: 106%
CC(=O)O[C@H]1C(=O)[C@@]2(C)[C@H]([C@H](OC(=O)c3ccccc3)[C@]3(O)C[C@H](OC(=O)[C@H](O)[C@@H](NC(=O)c4ccccc4)c4ccccc4)C(C)=C1C3(C)C)[C@]1(OC(C)=O)CO[C@@H]1C[C@@H]2O [Paclitaxel, reference compound]	94.5	96.7	96.2	81.6	84	92.5	90.6	70.4	96.8	88.4	101	96.6	87.1	94.2	83.1	87.5	–	–	–	–	IC50 ([4]; MCF-7, exposure 72 hours, mean±SD of three independent experiments, read-out: MCF-7(IC50)): ~7.05 nM; Papp A-B (Caco-2 cell monolayer [7]): 0.97 10^−6 cm/s; Papp B-A (Caco-2 cell monolayer [7]): 33.39 10^−6 cm/s; efflux ratio (Caco-2 cell monolayer [7]): 34.38; reported absolute oral bioavailability [8]: less than 5%; Papp A→B (in vitro): 0.97 ×10⁻⁶ cm/s
